The source of these data is patent US20010053777A1, “Drug treatment for restless leg syndrome” (priority 1999, published 2001).

The subject of series [1] is patients with RLS. Description: Treatment of 2 patients with RLS: therapeutic history, monotherapy trials and combination therapy. It counts as in vivo, human. Particulars: for side effects: dose-limiting or intolerable. The method, then: 2 patients with RLS (person and person) were treated with a combination therapy of pramipexole and clonidine.
The clonidine was also initially prescribed in a single dose of 0.075 mg two hours before bedtime and increased by 0.075 mg at intervals of 3 days.
2. Treatment with a combination therapy of clonidine and pramipexole After slowly bringing the clonidine therapy to a complete halt and after a treatment-free period of about 1 week, both patients were treated with a combination of 0.088 mg of pramipexole and 0.075 mg of clonidine. […] After 7 days the dosage of pramipexole had been increased to 0.18 mg and the dosage of clonidine to 0.15 mg, two hours before going to nd sleep.

In series [2] the test system is Restless Leg Syndrome (RLS) patients. Particulars: cited from earlier work; for effectiveness in RLS: short-term therapy trials or trials cited in the background; for relief from the complaint: a few partly open trials or long-term therapy.
Where [3] appears, read: 2 RLS patients, previous therapy or monotherapy.
Setting [4] is: 0.225 mg (male) / 0.45 mg (female) single dose before bedtime.

On to `CCCN1C[C@H](CSC)C[C@@H]2c3cccc4[nH]cc(c34)C[C@H]21` [pergolide], for which the side effects entry in series [1] (setting [3]) is “nausea, gastrointestinal problems and dizziness”. Further, the “effectiveness in RLS” value in series [2] is on record as “effective”. In the case of `CCCN[C@H]1CCc2nc(N)sc2C1` [pramipexole, (S)-2-amino-6-n-propylamino-4,5,6,7-tetrahydro-benzothiazole], in series [1] (setting [3]), the “RLS symptoms (discomfort, cramps and pains in the legs, compulsive movement, sleep problems, daytime tiredness)” value is “certainly improved”. For the same compound, in series [1] (pramipexole 0.36 mg (male) / 0.27 mg (female) daily, two hours before bedtime), the “difference from earlier therapy” value is listed as “did not report any difference”. In series [2], the “effectiveness in RLS” value is reported as “effective”. Consider `Clc1cccc(Cl)c1NC1=NCCN1` [clonidine, 2-(2,6-dichloroanilino)-4,5-dihydroimidazole], for which, in series [1] (setting [4]), the compulsive movements entry is reported as “improved”; the paresthesia felt result is recorded as “hardly any”; the “quality of sleep and number of times they woke during the night” value is reported as “not changed”. Besides, the side effects result in series [1] (setting [3]) was “dry mouth, dizziness and constipation”. Moreover, the “perceived symptoms such as paresthesia, compulsive movement and tiredness during the day” value in series [2] (daily doses 0.1-0.9 mg, 4 open trials, 2 double-blind placebo-controlled trials, a single case study) is reported as “(statistically significant) reduction”. For the same compound, in series [2] (daily doses 0.1-0.9 mg), the “sleep latency (polysomnographic)” value was “shortened”. For the same compound, the “quality of sleep, frequency of waking or periodic leg movements in sleep (PLMS)” value in series [2] (daily doses 0.1-0.9 mg, polysomnographic) is listed as “not affected”. Regarding `CCN(CC)C(=O)N[C@H]1C=C2c3cccc4[nH]cc(c34)C[C@H]2N(C)C1` [lisuride], the “effectiveness in RLS” value in series [2] is listed as “effective”. Consider `N[C@@H](Cc1ccc(O)c(O)c1)C(=O)O` [L-DOPA], for which the augmentation under therapy entry in series [1] (both RLS patients, previous therapy, disappeared on switch to a dopamine agonist) is “typical augmentation during the day”. The “relief from the complaint” value in series [2] is on record as “significant alleviation of the complaint”.

With `CCCN(CCC)CCc1cccc2c1CC(=O)N2` [ropinirol], the “effectiveness in RLS” value in series [2] is “effective”. Turning to `Cc1nnc2n1-c1sc(Br)cc1C(c1ccccc1Cl)=NC2` [Brotizolam], the “falling asleep and sleeping through” value in series [1] (2 RLS patients, previous therapy) is reported as “improved”. Regarding `CC(C)C[C@H]1C(=O)N2CCC[C@H]2[C@]2(O)O[C@](NC(=O)[C@@H]3C[C@@H]4c5cccc6[nH]cc(c56)C[C@H]4N(C)C3)(C(C)C)C(=O)N12` [alpha-dihydroergocryptine], the “effectiveness in RLS” value in series [2] is reported as “effective”. Turning to bromocryptine, in series [2], the “effectiveness in RLS” value is listed as “effective”. With `NC(=O)N1c2ccccc2C=Cc2ccccc21` [Carbamazepine], the “relief from the complaint” value in series [2] is recorded as “only partial relief”. As for `C=CCN1C[C@H](C(=O)N(CCCN(C)C)C(=O)NCC)C[C@@H]2c3cccc4[nH]cc(c34)C[C@H]21` [cabergoline], in series [2], the “effectiveness in RLS” value is on record as “effective”.
